From article PMC7217877, “N-AS-triggered SPMs are direct regulators of microglia in a model of Alzheimer’s disease” (Nature Communications, 2020)
Values joined by “and” are separate entries in the source; they are usually repeats but may differ in a detail not shown here. Equal values may be shown once.

Legend:
APP/PS1 mice = test: fluorescent bead phagocytosis assay in live brain slices (Fig 5b); type: in vivo, mouse; settings: APP/PS1 + N-AS, individual values
Experimental: Transgenic mouse lines over-expressing the hAPP695swe (APP) and presenilin-1M146V (PS1) mutations were originated from GlaxoSmithKline (Harlow, UK)[32] and maintained as described previously. We purchased 5×FAD mice from Jackson Labs (Stock number. 34840-JAX). Because APP/PS1 and 5xFAD mice show sex differences in disease progression, we used only male mice. To examine possible therapeutic effect of N-AS and aspirin in APP/PS1 mice, the N-AS (30 mg kg^−1, Sigma-Aldrich, 01912) was injected daily s.c. for 8 weeks to 7-months-old APP/PS1 mice until the age of 9 months, and aspirin (2 mg kg^−1, Sigma-Aldrich, A5376)[33] was administrated orally to 7-months-old APP/PS1 mice for 8 weeks. Also, to confirm possible therapeutic efficacy of N-AS in 5×FAD, the N-AS (30 mg kg^−1, Sigma-Aldrich, 01912) was injected daily s.c. for 4 weeks to 3-months-old 5×FAD mice until the age of 4 months. Block randomization method was used to allocate the animals to experimental groups. To eliminate the bias, we were blinded in experimental progress such as data collection and data analysis. […]
The phagocytic activity of adult microglia in the cortex of live brain slices was analyzed as following protocol. […] The sections were analyzed with a laser-scanning confocal microscope (FV3000; Olympus). MetaMorph software (Molecular Devices) was used to quantification.

[1] = tested on: immortalized human microglia; test: live-cell phagocytosis assay (bead uptake, Supplementary Fig 6e,f); type: cell-based
Experimental: Live-cell phagocytosis assays were performed according to previously described procedures with minor modifications. Briefly, in a glass bottom cell culture dish (SPL, 101350), adult SV40 immortalized human microglia cells (Applied Biologics Materials, T0251) were seeded for phagocytosis assay. […] After incubation, the microglia were treated with 0 or 2.5 μM N-AS (Sigma-Aldrich, 01912) at 37 °C for 2 h. FITC beads (Invitrogen) preopsonized in FBS (Gibco) were added at a concentration at 0.01% and then immediately observed using a laser scanning confocal microscope equipped with a live cell chamber system (FV3000, Olympus) for 2 h. Confocal images were collected every 5 min for 2 h and analyzed using the ImageJ software (National Institutes of Health).

[2] = tissue concentrations at 24 h (brain, liver, kidney, heart; Supplementary Fig 3g); type: in vivo, C57BL/6 mice; parameters: Brain concentration (sFig 3g): unit not given here; settings: for Heart concentration (sFig 3g) / Kidney concentration (sFig 3g) / Liver concentration (sFig 3g) / Brain concentration (sFig 3g): 24 h, individual animals
Experimental: C57BL/6 mice were administered N-AS (Sigma-Aldrich, 01912) at doses of 1 mg kg^−1 (i.v.) or 10 mg kg^−1 (p.o.). Venous blood samples were collected at 5, 15, and 30 min, and 1, 2, 4, 8, and 24 h postdose. A 30 μl of plasma was separated from whole blood by centrifugation and stored at −80 °C until analysis. Also, brain samples were collected at 1, 2, 4, and 24 h postdose and heart, liver, and kidney samples were collected at 24 h postdose, thoroughly rinsed with physiological saline and weighed. Twenty percentage of tissue homogenates were prepared by homogenizing the tissue samples with four volumes of saline. A 30 μl aliquot of plasma or a 50 μl aliquot of tissue homogenates were deproteinized by addition of 200 μl cold methanol (containing naringenin as internal standard at 20 ng ml^−1) and centrifuged at 15,974×g for 10 min. A 10 μl aliquot of the supernatant was injected into Agilent 6470 LC-MS/MS system. Separation was performed on a Synergy Polar RP column (4 μm particle size, 2.0 mm ×150 mm, Phenomenex) using a mobile phase that consisted of methanol and water (85:15, v/v) with 0.1% formic acid at a flow rate of 0.2 ml min^−1. Quantification was carried out using multiple reaction monitoring (MRM) at m/z 340.3→263.3 for N-AS and m/z 271.1→151.3 for naringenin (internal standard) in negative ionization mode and collision energy of 20 eV. p, and relative oral BA values were calculated as follows: BA% = AUCp.o. normalized by p.o. dose/AUCi.v. normalized by i.v. dose × 100.

CCCCCCCCCCCCC/C=C/[C@@H](O)[C@H](CO)NC(C)=O [N-AS, N-((2S,3R,E)-1,3-Dihydroxyoctadec-4-en-2-yl)acetamide]
number of microglial phagocytes normalized to the total number of microglia (APP/PS1 mice): 0.002363 and 0.002382 and 0.001493 and 0.001786 and 0.001435 | phagocytosis capacity, in words ([1]; Aβ-treated human microglia + N-AS): improved SPM production and phagocytosis capacity | Final number of beads per cell (at 120 min) ([1]; human microglia, Ab 0mM, sFig 6f): 20 and 14 and 16 and 11 and 13 and 15 | tissue concentration of N-AS at 24 hours post administration, in words ([2]; brain vs liver, kidney, heart, i.v. 1 mg/kg or p.o. 10 mg/kg): brain showed the highest concentration of N-AS | Heart concentration (sFig 3g) ([2]; i.v 1mg/kg): 0 | Kidney concentration (sFig 3g) ([2]; i.v 1mg/kg): 0 | Liver concentration (sFig 3g) ([2]; i.v 1mg/kg): 0 | Brain concentration (sFig 3g) ([2]; i.v 1mg/kg, 1 mg/kg): 13.15 and 12.57 and 8.38 and 7.48 | Heart concentration (sFig 3g) ([2]; p.o. 10mg/kg): 0 | Kidney concentration (sFig 3g) ([2]; p.o. 10mg/kg): 0 | Liver concentration (sFig 3g) ([2]; p.o. 10mg/kg): 0 | Brain concentration (sFig 3g) ([2]; p.o. 10mg/kg, 10 mg/kg): 20.2 and 32.76 and 11.3 and 29.06
